# Results published in US11946064B2, “Compositions and therapeutic methods of microRNA gene delivery” (The Brigham and Women's Hospital, Inc., priority 2018, dated 2024).
# Tested on: glioblastoma initiating cells (GICs)
# Assay: survival of mice implanted intracranially with GICs and treated with TMZ
# Type: in vivo, athymic nude mice
# Settings: control cells; intraperitoneal TMZ 20 mg/Kg/day for 5 days
# Method: FIGS. 6A-6F illustrates the effect of clustered microRNAs on GBM cells treated with TMZ or irradiation. […] Dotted lines represent animals treated with TMZ. Different line colors represent the different overexpressed clusters.
# Furthermore, in an in vivo model, mice were intracranially implanted with glioblastoma initiating cells (GICs) expressing either control vector, Cluster 3 or Cluster 5 vector and treated with intraperitoneal TMZ injections (20 mg/Kg/day for 5 days).
compound,measurement,value
"Cn1nnc2c(C(N)=O)ncn2c1=O [TMZ, temozolomide]",survival benefit,~40%
